Data as given in patent publication US10167479B2, “Agrobacterium strains for plant transformation” (priority 2009, dated 2019).

What was measured:
Embryogenic calli = assay: X-gluc staining of calli immediately after 53 hours co-culture; type: cell-based, Jatropha curcas; details: AS 200 μM, pCambia1305.1 bar
Text: The calli were immediately stained with X-gluc and photographed.
The calli were immediately stained with X-gluc.

[1] = tested on: Soybean embryogenic suspension culture (derived Peking 18); details: 1 μM DPI in co-culture medium; pre-induced AGL1(pCambia1305.1); 2.5 day at 24° C.; 10 mg/l hygromycin selection; control about 40%
Method: Soybean embryogenic suspension culture (derived Peking 18) was co-cultured for 2.5 day at 24° C. with pre-induced AGL1(pCambia1305.1) on nylon membrane, which was placed on top of solid medium (1M with 20 mg/l 2,4-D and B5 vitamins) that was supplemented with 1 μM DPI or 1 mM Na-thiosulfate, 8.8 mM L-cysteine and 1 mM DTT. After selection with 10 mg/l hygromycin, the calli clumps were stained with X-gluc.

[2] = tested on: Jatropha curcas somatic embryos / somatic embryogenic calli; details: TE7, AGL1 pST2eGFP
Method: Embryogenic cell lines, for example, JS4 cell line, which was derived from a zygotic embryo of an Indonesian Jatropha curcas collection, were subcultured every week by transferring about 3 g of the cell mass to 20 ml J20P medium. 3-5 days after subculture, the embryogenic calli cell mass was collected.
Co-culture plates were made by pouring about 30 ml JIM2H solid medium to each 90 mm Petri dish. Alternatively, 3-4 sheets of cellulose filter paper can be soaked with JIM2H liquid medium before placing into a 90 mm Petri dish. One sheet of 82 mm Hybond N membrane was over-laid to the medium-soaked cellulose filter paper or solid JIM2H medium. About 0.75 g embryogenic calli was mixed with 200 ul Agrobacterium cells on the membrane. After one hour incubation at room temperature, excess liquid medium containing the Agrobacterium cells was removed. The plates were capped, sealed with 3M tape and incubated at 24° C. with dim light for 2-3 days.
Fresh colonies of AGL2 or AGL3 harboring pCambia1305.1 were inoculated into 30 ml LB medium that had been supplemented with 25 mg/l rifampicin and 50 mg/l kanamycin. Cells were cultured at 28° C., 200-230 RPM until OD600 reached 0.8-2.0. […]
In about 3 weeks, the embryos were transferred to G35-2 medium with 10 mg/l hygromycin. […] Rooted plantlets were ready for planting in soil in 2-3 weeks. […]

[3] = tested on: Somatic embryogenic calli from 4 different cell lines; details: DPI at about 10 μM; AGL2(pCambia1305.1); LMP Bd2 embedding; two months selection; average of four cell lines
Method: The co-culture medium JIM2 was supplemented with either 1 μM diphenyl iodonium (DPI), 5 μM DPI or a mixture of antioxidants with a final concentration of 1 mM Na-thiosulfate, 8.8 mM L-cysteine and 1 mM dithiothreitol (DTT). Hygromycin resistant somatic embryos were scored after two months selection. The number of somatic embryos derived from co-culture with DPI-free JIM2 (CK) was set at 100 in each cell line and the relative number of somatic embryos in other co-culture conditions was calculated by dividing the actual number by that of CK.
Somatic embryogenic calli from 4 different cell lines were co-cultured with AGL2(pCambia1305.1) and selection was done by the LMP Bd2 embedding method. The co-culture medium JIM2 was supplemented with either 1 μM DPI, 5 μM DPI or a mixture of antioxidants with a final concentration of 1 mM Na-thiosulfate, 8.8 mM L-cysteine and 1 mM DTT. Hygromycin resistant somatic embryos were scored after two months selection. In transformation using each cell line, the number of somatic embryos derived from co-culture with DPI-free JIM2 (CK) was set at 100 and relative number of somatic embryos in other co-culture conditions was calculated by dividing the actual number by that of CK.

Structure (SMILES): COc1cc(C(C)=O)cc(OC)c1O [AS, acetosyringone]
- Effect of AS on transformation efficiency in AGL2 (Embryogenic calli): further boosted transformation efficiency

Structure (SMILES): c1ccc2c(c1)[I+]c1ccccc1-2 [DPI, diphenylene iodonium]
- calli clumps showing GUS staining [1]: more than 80%
- Effect of DPI on explants ([2]; liquid medium SE): DPI caused no damage on
- Improvement of transformation efficiency (relative number of hygromycin resistant somatic embryos vs DPI-free JIM2) [3]: more than 2 folds

Structure (SMILES): NC[C@H]1O[C@H](O[C@H]2[C@H](O)[C@@H](O[C@H]3O[C@H](CO)[C@@H](O)[C@H](N)[C@H]3O)[C@H](N)C[C@@H]2N)[C@H](O)[C@@H](O)[C@@H]1O [Kan, kanamycin]
- Kan selection concentration found OK ([2]; Kan 0, 25, 50 and 80 mg/l tested, SE on solid medium): 50-80 mg/l OK, heavy
